Experimental data from patent publication US20090181898A1, “ABUSE-RESISTANT A[…]” (SHIRE LLC, priority 2002, published 2009).

Columns and labels:
[1] = Oral bioavailability at escalating doses (LC/MS/MS); settings: rat; for AUC(0-inf): in vivo, po; for F (fraction of intact L-lysine-d-amphetamine absorbed): oral
[2] = system: rats; assay: Horizontal locomotor activity after oral administration; format: in vivo, Sprague-Dawley rats; settings: for Peak of activity (Counts per 0.2 h) / Time of Last Count Above 200 per 0.2 h / Total Activity Counts / Total Activity Counts Above Baseline: rats, oral gavage 6 mg/kg
[3] = system: stimulant abusers; assay: Abuse liability of intravenous L-lysine-d-amphetamine in stimulant abusers; settings: IV
[4] = system: rats; assay: Locomotor activity after intranasal administration with and without CMC; format: in vivo, Sprague-Dawley rats
Source text: The CMC drug mixtures were suspended thoroughly before each dose was delivered.

[5] = system: anesthetized dog; assay: Cardiovascular effects following intravenous injection in the anesthetized dog
[6] = Intranasal bioavailability (LC/MS/MS); settings: rat, in vivo, other: intranasal, 3 mg/kg
[7] = system: rats; assay: Locomotor activity after intravenous administration; format: in vivo, Sprague-Dawley rats; settings: rat, 1.0 mg/kg
[8] = L-lysine-d-amphetamine 50 mg, d-amphetamine 20 mg
[9] = rats, intranasal 1.0 mg/kg, 1 h

CC(Cc1ccccc1)NC(=O)C(N)CCCCN [L-lysine-d-amphetamine, 2,6-diaminohexanoic acid-(1-methyl-2-phenylethyl)-amide]
AUC(0-inf) ([1]; 3 mg/kg): 331 ng·h/mL | AUC(0-inf) ([1]; 6 mg/kg): 1180 ng·h/mL | AUC(0-inf) ([1]; 12 mg/kg): 5170 ng·h/mL | AUC(0-inf) ([1]; 60 mg/kg): 8460 ng·h/mL | F (fraction of intact L-lysine-d-amphetamine absorbed) ([1]; 3 mg/kg): 7.2% | F (fraction of intact L-lysine-d-amphetamine absorbed) ([1]; 6 mg/kg): 12.8% | F (fraction of intact L-lysine-d-amphetamine absorbed) ([1]; 12 mg/kg): 24.6% | F (fraction of intact L-lysine-d-amphetamine absorbed) ([1]; 60 mg/kg): 9.3% | Increase of total HLA activity counts over those induced by d-amphetamine ([2]; rat, oral, 6 mg/kg, three experiments (5, 8, 12 h)): 11-41% | Peak of activity (Counts per 0.2 h) ([2]; 5 h experiment): 318 Counts per 0.2 h | Time of Last Count Above 200 per 0.2 h ([2]; 5 h experiment): 5 h | Total Activity Counts ([2]; 5 h experiment): 6417 | Total Activity Counts Above Baseline ([2]; 5 h experiment): 5902 | Peak of activity (Counts per 0.2 h) ([2]; 12 h experiment): 256 Counts per 0.2 h | Time of Last Count Above 200 per 0.2 h ([2]; 12 h experiment): 8.6 h | Total Activity Counts ([2]; 12 h experiment): 8423 | Total Activity Counts Above Baseline ([2]; 12 h experiment): 7487 | Euphoria or amphetamine-like subjective effects ([3]; 50 mg): did not produce euphoria or amphetamine-like subjective effects | Mean maximum response on Subject Liking VAS vs placebo [3, 8]: not greater than placebo | Subjects (of 9) who would take the treatment again [3, 8]: one | Increase in activity over baseline compared to activity for d-amphetamine dosed animals ([4]; rat, intranasal, 1.0 mg/kg): 34% | Percent Amp (activity above baseline relative to Amp) [4, 9]: 35% | Total Activity Counts (1 h) [4, 9]: 408 | Total Activity Counts Above Baseline [4, 9]: 237 | Increase in mean BP ([5]; dog, IV, approximately 30 minutes after injection): 20-50% | DAP % Change ([5]; iv 0.5 mg/kg, Time 0): 0% | DAP diastolic arterial pressure ([5]; iv 0.5 mg/kg, Time 0): 51 mmHg | LVP % Change ([5]; iv 0.5 mg/kg, Time 0): 0% | LVP left ventricular pressure ([5]; iv 0.5 mg/kg, Time 0): 86 mmHg | MAP % Change ([5]; iv 0.5 mg/kg, Time 0): 0% | MAP mean arterial pressure ([5]; iv 0.5 mg/kg, Time 0): 64 mmHg | SAP % Change ([5]; iv 0.5 mg/kg, Time 0): 0% | SAP systolic arterial pressure ([5]; iv 0.5 mg/kg, Time 0): 84 mmHg | DAP % Change ([5]; iv 0.5 mg/kg, Time 5): 3% | DAP diastolic arterial pressure ([5]; iv 0.5 mg/kg, Time 5): 52 mmHg | LVP % Change ([5]; iv 0.5 mg/kg, Time 5): 2% | LVP left ventricular pressure ([5]; iv 0.5 mg/kg, Time 5): 87 mmHg | MAP % Change ([5]; iv 0.5 mg/kg, Time 5): 3% | MAP mean arterial pressure ([5]; iv 0.5 mg/kg, Time 5): 66 mmHg | SAP % Change ([5]; iv 0.5 mg/kg, Time 5): 4% | SAP systolic arterial pressure ([5]; iv 0.5 mg/kg, Time 5): 87 mmHg | DAP % Change ([5]; iv 0.5 mg/kg, Time 15): 1% | DAP diastolic arterial pressure ([5]; iv 0.5 mg/kg, Time 15): 51 mmHg | LVP % Change ([5]; iv 0.5 mg/kg, Time 15): 11% | LVP left ventricular pressure ([5]; iv 0.5 mg/kg, Time 15): 95 mmHg | MAP % Change ([5]; iv 0.5 mg/kg, Time 15): 5% | MAP mean arterial pressure ([5]; iv 0.5 mg/kg, Time 15): 67 mmHg | SAP % Change ([5]; iv 0.5 mg/kg, Time 15): 11% | SAP systolic arterial pressure ([5]; iv 0.5 mg/kg, Time 15): 93 mmHg | DAP % Change ([5]; iv 0.5 mg/kg, Time 25): 8% | DAP diastolic arterial pressure ([5]; iv 0.5 mg/kg, Time 25): 55 mmHg | LVP % Change ([5]; iv 0.5 mg/kg, Time 25): 22% | LVP left ventricular pressure ([5]; iv 0.5 mg/kg, Time 25): 105 mmHg | MAP % Change ([5]; iv 0.5 mg/kg, Time 25): 15% | MAP mean arterial pressure ([5]; iv 0.5 mg/kg, Time 25): 73 mmHg | SAP % Change ([5]; iv 0.5 mg/kg, Time 25): 25% | SAP systolic arterial pressure ([5]; iv 0.5 mg/kg, Time 25): 104 mmHg | DAP % Change ([5]; iv 0.5 mg/kg, Time 30): 14% | DAP diastolic arterial pressure ([5]; iv 0.5 mg/kg, Time 30): 58 mmHg | LVP % Change ([5]; iv 0.5 mg/kg, Time 30): 26% | LVP left ventricular pressure ([5]; iv 0.5 mg/kg, Time 30): 108 mmHg | MAP % Change ([5]; iv 0.5 mg/kg, Time 30): 21% | MAP mean arterial pressure ([5]; iv 0.5 mg/kg, Time 30): 77 mmHg | SAP % Change ([5]; iv 0.5 mg/kg, Time 30): 28% | SAP systolic arterial pressure ([5]; iv 0.5 mg/kg, Time 30): 107 mmHg | DAP % Change ([5]; iv 1.0 mg/kg, Time 0): 0% | DAP diastolic arterial pressure ([5]; iv 1.0 mg/kg, Time 0): 55 mmHg | LVP % Change ([5]; iv 1.0 mg/kg, Time 0): 0% | LVP left ventricular pressure ([5]; iv 1.0 mg/kg, Time 0): 108 mmHg | MAP % Change ([5]; iv 1.0 mg/kg, Time 0): 0% | MAP mean arterial pressure ([5]; iv 1.0 mg/kg, Time 0): 74 mmHg | SAP % Change ([5]; iv 1.0 mg/kg, Time 0): 0% | SAP systolic arterial pressure ([5]; iv 1.0 mg/kg, Time 0): 105 mmHg | DAP % Change ([5]; iv 1.0 mg/kg, Time 5): 15% | DAP diastolic arterial pressure ([5]; iv 1.0 mg/kg, Time 5): 63 mmHg | LVP % Change ([5]; iv 1.0 mg/kg, Time 5): 11% | LVP left ventricular pressure ([5]; iv 1.0 mg/kg, Time 5): 120 mmHg | MAP % Change ([5]; iv 1.0 mg/kg, Time 5): 15% | MAP mean arterial pressure ([5]; iv 1.0 mg/kg, Time 5): 85 mmHg | SAP % Change ([5]; iv 1.0 mg/kg, Time 5): 15% | SAP systolic arterial pressure ([5]; iv 1.0 mg/kg, Time 5): 121 mmHg | DAP % Change ([5]; iv 1.0 mg/kg, Time 15): 33% | DAP diastolic arterial pressure ([5]; iv 1.0 mg/kg, Time 15): 73 mmHg | LVP % Change ([5]; iv 1.0 mg/kg, Time 15): 29% | LVP left ventricular pressure ([5]; iv 1.0 mg/kg, Time 15): 140 mmHg | MAP % Change ([5]; iv 1.0 mg/kg, Time 15): 35% | MAP mean arterial pressure ([5]; iv 1.0 mg/kg, Time 15): 100 mmHg | SAP % Change ([5]; iv 1.0 mg/kg, Time 15): 35% | SAP systolic arterial pressure ([5]; iv 1.0 mg/kg, Time 15): 142 mmHg | DAP % Change ([5]; iv 1.0 mg/kg, Time 25): 75% | DAP diastolic arterial pressure ([5]; iv 1.0 mg/kg, Time 25): 97 mmHg | LVP % Change ([5]; iv 1.0 mg/kg, Time 25): 50% | LVP left ventricular pressure ([5]; iv 1.0 mg/kg, Time 25): 162 mmHg | MAP % Change ([5]; iv 1.0 mg/kg, Time 25): 68% | MAP mean arterial pressure ([5]; iv 1.0 mg/kg, Time 25): 124 mmHg | SAP % Change ([5]; iv 1.0 mg/kg, Time 25): 55% | SAP systolic arterial pressure ([5]; iv 1.0 mg/kg, Time 25): 163 mmHg | DAP % Change ([5]; iv 1.0 mg/kg, Time 30): 32% | DAP diastolic arterial pressure ([5]; iv 1.0 mg/kg, Time 30): 73 mmHg | LVP % Change ([5]; iv 1.0 mg/kg, Time 30): 33% | LVP left ventricular pressure ([5]; iv 1.0 mg/kg, Time 30): 144 mmHg | MAP % Change ([5]; iv 1.0 mg/kg, Time 30): 32% | MAP mean arterial pressure ([5]; iv 1.0 mg/kg, Time 30): 98 mmHg | SAP % Change ([5]; iv 1.0 mg/kg, Time 30): 28% | SAP systolic arterial pressure ([5]; iv 1.0 mg/kg, Time 30): 134 mmHg | DAP % Change ([5]; iv 5.0 mg/kg, Time 0): 0% | DAP diastolic arterial pressure ([5]; iv 5.0 mg/kg, Time 0): 71 mmHg | LVP % Change ([5]; iv 5.0 mg/kg, Time 0): 0% | LVP left ventricular pressure ([5]; iv 5.0 mg/kg, Time 0): 144 mmHg | MAP % Change ([5]; iv 5.0 mg/kg, Time 0): 0% | MAP mean arterial pressure ([5]; iv 5.0 mg/kg, Time 0): 95 mmHg | SAP % Change ([5]; iv 5.0 mg/kg, Time 0): 0% | SAP systolic arterial pressure ([5]; iv 5.0 mg/kg, Time 0): 132 mmHg | DAP % Change ([5]; iv 5.0 mg/kg, Time 5): 0% | DAP diastolic arterial pressure ([5]; iv 5.0 mg/kg, Time 5): 71 mmHg | LVP % Change ([5]; iv 5.0 mg/kg, Time 5): 5% | LVP left ventricular pressure ([5]; iv 5.0 mg/kg, Time 5): 151 mmHg | MAP % Change ([5]; iv 5.0 mg/kg, Time 5): 4% | MAP mean arterial pressure ([5]; iv 5.0 mg/kg, Time 5): 99 mmHg | SAP % Change ([5]; iv 5.0 mg/kg, Time 5): 7% | SAP systolic arterial pressure ([5]; iv 5.0 mg/kg, Time 5): 142 mmHg | DAP % Change ([5]; iv 5.0 mg/kg, Time 15): 39% | DAP diastolic arterial pressure ([5]; iv 5.0 mg/kg, Time 15): 98 mmHg | LVP % Change ([5]; iv 5.0 mg/kg, Time 15): 28% | LVP left ventricular pressure ([5]; iv 5.0 mg/kg, Time 15): 184 mmHg | MAP % Change ([5]; iv 5.0 mg/kg, Time 15): 37% | MAP mean arterial pressure ([5]; iv 5.0 mg/kg, Time 15): 130 mmHg | SAP % Change ([5]; iv 5.0 mg/kg, Time 15): 33% | SAP systolic arterial pressure ([5]; iv 5.0 mg/kg, Time 15): 176 mmHg | DAP % Change ([5]; iv 5.0 mg/kg, Time 25): −3% | DAP diastolic arterial pressure ([5]; iv 5.0 mg/kg, Time 25): 69 mmHg | LVP % Change ([5]; iv 5.0 mg/kg, Time 25): 11% | LVP left ventricular pressure ([5]; iv 5.0 mg/kg, Time 25): 160 mmHg | MAP % Change ([5]; iv 5.0 mg/kg, Time 25): 1% | MAP mean arterial pressure ([5]; iv 5.0 mg/kg, Time 25): 96 mmHg | SAP % Change ([5]; iv 5.0 mg/kg, Time 25): −5% | SAP systolic arterial pressure ([5]; iv 5.0 mg/kg, Time 25): 126 mmHg | DAP % Change ([5]; iv 5.0 mg/kg, Time 30): −1% | DAP diastolic arterial pressure ([5]; iv 5.0 mg/kg, Time 30): 70 mmHg | LVP % Change ([5]; iv 5.0 mg/kg, Time 30): 13% | LVP left ventricular pressure ([5]; iv 5.0 mg/kg, Time 30): 163 mmHg | MAP % Change ([5]; iv 5.0 mg/kg, Time 30): 4% | MAP mean arterial pressure ([5]; iv 5.0 mg/kg, Time 30): 99 mmHg | SAP % Change ([5]; iv 5.0 mg/kg, Time 30): 0% | SAP systolic arterial pressure ([5]; iv 5.0 mg/kg, Time 30): 132 mmHg | concentration at 0 h [6]: 0 ng/mL | Total Activity Counts (3 h) [7]: 767 | Activity above baseline, Percent Amp ([7]; 3 h): 34% | Total Activity Counts Above Baseline ([7]; 3 h): 463
